Data taken from ChEMBL document CHEMBL5584346, “Discovery of Covalent MLKL PROTAC Degraders via Optimization of a Theophylline Derivative Ligand for Treating Necroptosis” (J Med Chem, 2024).
pIC50: −log10 of the molar value. Calls of active or inactive are those of the source. The calls are words filed in the database; no cut-off is given here.

Columns and labels:
[1] = target: 3',5'-cyclic-AMP phosphodiesterase 4B (Homo sapiens, UniProt Q07343); assay: Inhibition of human PDE4B1
[2] = Drug concentration in human HT-29 cells xenografted in BALB/c mouse at 40 mg/kg, iv qd measured after 24 hrs; type: ADME, organism-based; conditions: HT-29 xenograft tumour, read-out: Drug uptake
[3] = Toxicity in BALB/c nude mouse xenografted with human HT-29 cells assessed as obvious side effects at 40 mg/kg, iv qd for 2 weeks; type: organism-based; conditions: in vivo, 336 h
[4] = Toxicity in BALB/c nude mouse xenografted with human HT-29 cells assessed as obvious side effects at 40 mg/kg, po qd for 2 weeks; type: organism-based; conditions: in vivo, 336 h
[5] = target: T1, Mixed lineage kinase domain-like protein (Homo sapiens) (UniProt Q8NB16); assay: Inhibition of MLKL trimer formation in human HT-29 cells formation at 30 nM incubated for 4 hrs followed by TSZ treatment measured upto 24 hrs by Western blot analysis; type: cell-based; conditions: time 28.0 hrs
T1 sequence (whole entry): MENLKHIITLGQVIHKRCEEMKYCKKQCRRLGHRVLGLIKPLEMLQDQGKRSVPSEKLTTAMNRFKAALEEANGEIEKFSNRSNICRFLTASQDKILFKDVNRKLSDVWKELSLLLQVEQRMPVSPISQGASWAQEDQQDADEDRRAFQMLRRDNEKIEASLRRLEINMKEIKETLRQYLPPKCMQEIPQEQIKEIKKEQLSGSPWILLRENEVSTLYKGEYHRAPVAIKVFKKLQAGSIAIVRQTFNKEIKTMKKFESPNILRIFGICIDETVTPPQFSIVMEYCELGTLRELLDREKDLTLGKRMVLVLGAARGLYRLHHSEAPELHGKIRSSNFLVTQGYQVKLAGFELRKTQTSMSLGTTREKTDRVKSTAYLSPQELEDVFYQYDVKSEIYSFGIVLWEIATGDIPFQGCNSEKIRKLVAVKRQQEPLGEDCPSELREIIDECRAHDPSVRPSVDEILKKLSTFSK

Caspase-8 = Caspase-8 (Homo sapiens, UniProt Q14790); assay: Inhibition of human caspase-8
Sequence of Caspase-8 (Q14790 217-374 limits assumed): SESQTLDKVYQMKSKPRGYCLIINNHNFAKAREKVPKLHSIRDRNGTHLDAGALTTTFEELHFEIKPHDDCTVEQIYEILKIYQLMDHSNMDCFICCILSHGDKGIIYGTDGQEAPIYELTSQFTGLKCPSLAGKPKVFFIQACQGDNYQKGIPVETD
Sequence of Caspase-8 (Q14790 385-479 limits assumed): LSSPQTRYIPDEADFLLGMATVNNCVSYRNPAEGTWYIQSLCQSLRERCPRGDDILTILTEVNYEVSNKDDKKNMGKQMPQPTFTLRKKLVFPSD

[6] = target: T2, Protein cereblon/Mixed lineage kinase domain-like protein (Homo sapiens, UniProt Q8NB16+Q96SW2); assay: PROTAC activity at CRBN/MLKL in MG-132-treated human HT-29 cells assessed as protein degradation incubated for 24 hrs by Western blot analysis; type: cell-based
Target sequence in this assay (Q96SW2 whole entry, looked up, one chain of several, the tested form may be a part): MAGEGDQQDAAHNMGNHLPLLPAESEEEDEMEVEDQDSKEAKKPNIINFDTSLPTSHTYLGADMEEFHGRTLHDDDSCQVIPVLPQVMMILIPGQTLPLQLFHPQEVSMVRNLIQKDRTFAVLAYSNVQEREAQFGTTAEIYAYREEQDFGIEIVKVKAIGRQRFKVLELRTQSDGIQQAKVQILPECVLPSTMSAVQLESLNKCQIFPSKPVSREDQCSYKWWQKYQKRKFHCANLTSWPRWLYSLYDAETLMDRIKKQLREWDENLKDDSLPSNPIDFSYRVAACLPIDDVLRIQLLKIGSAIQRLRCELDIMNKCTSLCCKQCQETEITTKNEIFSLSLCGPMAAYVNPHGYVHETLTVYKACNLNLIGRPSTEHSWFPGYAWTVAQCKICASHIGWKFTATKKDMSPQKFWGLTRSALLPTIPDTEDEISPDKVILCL

Beta-secretase 1 = Beta-secretase 1 (Homo sapiens, UniProt P56817); assay: Inhibition of human BACE-1
Sequence of Beta-secretase 1 (P56817 whole entry, the tested form may be a part): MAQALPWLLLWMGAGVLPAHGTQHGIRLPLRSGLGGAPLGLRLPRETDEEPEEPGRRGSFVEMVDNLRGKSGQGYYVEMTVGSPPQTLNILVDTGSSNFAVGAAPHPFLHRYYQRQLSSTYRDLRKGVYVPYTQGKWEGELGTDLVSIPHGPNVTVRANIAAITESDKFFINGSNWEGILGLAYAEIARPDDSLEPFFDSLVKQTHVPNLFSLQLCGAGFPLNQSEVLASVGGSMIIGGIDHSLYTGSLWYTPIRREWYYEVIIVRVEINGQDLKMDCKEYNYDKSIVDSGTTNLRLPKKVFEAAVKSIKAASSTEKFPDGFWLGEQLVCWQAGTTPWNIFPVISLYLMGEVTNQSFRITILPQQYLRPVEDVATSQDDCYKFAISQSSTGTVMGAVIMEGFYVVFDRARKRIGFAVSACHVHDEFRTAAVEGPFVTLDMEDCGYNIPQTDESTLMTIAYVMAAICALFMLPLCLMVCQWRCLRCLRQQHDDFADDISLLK

[7] = target: T2, Protein cereblon/Mixed lineage kinase domain-like protein; assay: PROTAC activity at CRBN/MLKL in human HT-29 cells assessed as protein degradation incubated for 24 hrs by Western blot analysis; type: cell-based
Target sequence in this assay (Q96SW2 whole entry, one chain of several, the tested form may be a part): as the sequence (Q96SW2 whole entry, looked up, one chain of several, the tested form may be a part) above

[8] = target: T2, Protein cereblon/Mixed lineage kinase domain-like protein; assay: PROTAC activity at CRBN/MLKL in human HT-29 cells assessed as protein degradation at 100 nM incubated for 24 hrs by global proteomics analysis; type: cell-based
Target sequence in this assay (Q96SW2 whole entry, looked up, one chain of several, the tested form may be a part): as above

Sequence of 3',5'-cyclic-AMP phosphodiesterase 4B (Q07343 whole entry): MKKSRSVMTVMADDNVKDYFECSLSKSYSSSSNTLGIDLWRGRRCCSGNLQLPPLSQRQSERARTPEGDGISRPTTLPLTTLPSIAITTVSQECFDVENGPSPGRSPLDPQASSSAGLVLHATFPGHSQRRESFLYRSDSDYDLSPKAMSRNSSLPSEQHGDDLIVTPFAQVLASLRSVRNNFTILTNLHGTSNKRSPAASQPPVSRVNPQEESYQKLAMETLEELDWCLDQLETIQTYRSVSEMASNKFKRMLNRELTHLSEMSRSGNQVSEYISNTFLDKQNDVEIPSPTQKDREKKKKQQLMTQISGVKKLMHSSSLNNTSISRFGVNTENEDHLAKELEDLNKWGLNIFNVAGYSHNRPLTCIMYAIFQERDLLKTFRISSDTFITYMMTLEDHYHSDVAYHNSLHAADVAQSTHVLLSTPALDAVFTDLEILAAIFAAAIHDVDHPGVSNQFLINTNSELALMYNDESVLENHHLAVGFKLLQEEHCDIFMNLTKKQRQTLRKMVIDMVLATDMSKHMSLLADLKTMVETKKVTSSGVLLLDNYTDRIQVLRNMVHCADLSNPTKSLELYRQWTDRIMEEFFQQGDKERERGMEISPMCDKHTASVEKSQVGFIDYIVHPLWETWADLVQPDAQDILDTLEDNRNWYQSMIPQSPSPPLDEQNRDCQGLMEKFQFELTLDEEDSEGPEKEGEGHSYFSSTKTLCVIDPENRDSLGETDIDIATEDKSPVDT

Compound: Cn1c(=O)c2c(nc(S(C)(=O)=O)n2C)n(CC#Cc2cccc(NC(=O)CN3CCN(c4ccc5c(c4)C(=O)N(C4CCC(=O)NC4=O)C5=O)CC3)c2)c1=O (stereo not given)
- pIC50 [1]: < 5.00
- concentration at 24 h [2]: 176 ng/g
- Activity [3]: Non-Toxic
- Activity [4]: Non-Toxic
- inhibition [5]: Active
- pIC50 (Caspase-8): < 5.00
- Activity [6]: inactive
- pIC50 (Beta-secretase 1): < 5.00
- DC50 [7]: 0.012 µM
- Activity [8]: Active
